Results: paper PMC3698108, “Structural and bioactive studies of terpenes and cyclopeptides from the Genus Rubia” (Chemistry Central Journal, 2013)
Entries after “also recorded” stand apart in the source; their conditions may differ.

Tests used:
platelet aggregation = system: platelet aggregation; parameters: method as in PMID 12350148; conditions: cited from earlier work
P388 = conditions: cited from earlier work
[1] = system: RAW 264.7 murine macrophages; conditions: cited from earlier work
iNOS = system: iNOS; parameters: method as in PMID 12808242; conditions: cited from earlier work
[2] = system: A549, SK-OV-3, SK-MEL-2, MES-SA and HCT-15; parameters: method as in PMID 15089031; conditions: cited from earlier work
P-388 = conditions: cited from earlier work; for cytotoxicity against P-388 IC50: moderate cytotoxicity
[3] = system: NO production from LPS-activated macrophages; parameters: method as in PMID 12762798; conditions: cited from earlier work
A549, Hela and SMMC-7721 = system: A549, Hela and SMMC-7721; parameters: method as in PMID 21973054; conditions: data not very satisfactory; cited from earlier work
11 cancer cell lines = conditions: SRB assay; cited from earlier work
HT-29 = conditions: cited from earlier work
TRAIL-induced apoptosis = conditions: cited from earlier work
STAT3 = conditions: cited from earlier work
four cell lines = conditions: cited from earlier work
renal aldose reductase = conditions: cited from earlier work
glyoxalase I = conditions: cited from earlier work
[4] = system: human immunodeficiency virus (HIV-1) protease; parameters: method as in PMID 8759159; conditions: cited from earlier work
[5] = system: Vancomycin-Resistant Enterococci; conditions: cited from earlier work; for antimicrobial activities: weaker than clinical antimicrobial drugs
HL-60 cells = system: HL-60 cells; parameters: method as in doi:10.1016/j.phytol.2012.02.014; conditions: much weaker than RA-XXIV and RA-VII; cited from earlier work
DNA topoisomerase II = system: DNA topoisomerase II; parameters: method as in PMID 18239313; conditions: cited from earlier work
HT-29, MCF-7 and HepG2 = system: HT-29, MCF-7 and HepG2; parameters: method as in PMID 18239313; conditions: cited from earlier work
[6] = parameters: method as in PMID 20188082; conditions: mice; cited from earlier work

Q: For Rubiarbonone A [Compound 25], which “effect on platelet aggregation at the high doses” value (platelet aggregation) is on record?
A: promoted platelet aggregation

Q: What about the “effect on platelet aggregation at the lower concentrations” value (platelet aggregation) of the same molecule?
A: possessed antiplatelet aggregation activity

Q: What does the source list for RA-XII [Compound 79]?
A: antitumor activity against P388 (P388): potent antitumor activity; activity against NO production in LPS [1]: exhibited activity; effects on iNOS induction (iNOS): potent effects

Q: Which “bioactivities against A549, SK-OV-3, SK-MEL-2, MES-SA and HCT-15” value [2] does the source give for `CC(=O)OC1CCC2(C)C(CCC3(C)C2CC=C2C4CC(C)(C)CCC4(C=O)CCC23C)C1(C)C` (stereo not drawn) [Compound 15, Oleanolic aldehyde acetate] here?
A: potent bioactivities

Q: Which “relative cytotoxicity against P388” value (P-388; RA-VII (74) as reference) does the source give for RA- XXII [Compound 89] here?
A: less cytotoxic than 88

Q: Which “activities against P388” value (P388) does the source give for RC-18 [Compound 105] here?
A: medium activities

Q: Which “inhibition of NO production” value [3] does the source give for `CC(C)[C@@H]1C[C@@H](O)[C@H]2[C@@]1(CO)CC[C@@]1(C)[C@H]3C(=CC[C@]21C)[C@@]1(C)C[C@@H](O)[C@H](O)C(C)(C)[C@@H]1C[C@@H]3O` [Compound 21, Rubiarbonol F] here?
A: inhibit NO production; also recorded: inhibitory activities on NO production

Q: For `CC(C)[C@@H]1C[C@@H](O)[C@H]2[C@@]1(C)CC[C@@]1(C)C3=CC[C@H]4C(C)(C)[C@@H](O)CC[C@]4(C)C3=CC[C@]21C` [Compound 54, Rubiyunnanol A], which “inhibition on A549, Hela and SMMC-7721” value (A549, Hela and SMMC-7721) is on record?
A: had inhibition

Q: For `CC(=O)O[C@@H]1C[C@@H](C(C)C)[C@]2(CO)CC[C@@]3(C)[C@H]4C(=CC[C@]3(C)[C@@H]12)[C@@]1(C)C=CC(=O)C(C)(C)[C@@H]1C[C@@H]4O` [Compound 58, Rubiarbonone E 19-acetate], which “inhibition on A549, Hela and SMMC-7721” value (A549, Hela and SMMC-7721) is on record?
A: had inhibition

Q: With Rubiyunnanin B [Compound 93] as the molecule, how does the “cytotoxicities against the 11 cancer cell lines” value (11 cancer cell lines) read?
A: moderate cytotoxicities

Q: With `COc1ccc(C[C@H]2C(=O)N[C@@H](C)C(=O)N(C)[C@H]3Cc4ccc(cc4)Oc4cc(ccc4OC)C[C@@H](C(=O)N[C@H](C)C(=O)N[C@@H](CCC(N)=O)C(=O)N2C)N(C)C3=O)cc1` [Compound 90, RA- XXIII] as the molecule, how does the “cytotoxicity against P-388 IC50” value (P-388; P-388) read?
A: 160 µg/mL

Q: With RA-I [Compound 66] as the molecule, how does the “activity against NO production in LPS” value [1] read?
A: exhibited activity

Q: Which “inhibition on A549, Hela and SMMC-7721” value (A549, Hela and SMMC-7721) does the source give for `CC(=O)OC[C@@]12CC[C@@]3(C)[C@H]4C(=CC[C@]3(C)[C@H]1[C@H](O)C[C@H]2C(C)C)[C@@]1(C)CC[C@H](O[C@@H]2O[C@H](CO[C@@H]3O[C@H](CO)[C@@H](O)[C@H](O)[C@H]3O)[C@@H](O)[C@H](O)[C@H]2O)C(C)(C)[C@@H]1C[C@@H]4O` [Compound 62, Rubiarboside G 28-acetate] here?
A: had inhibition

Q: What does the source list for `CC(=O)OC[C@@]12CC[C@@]3(C)[C@H]4C(=CC[C@]3(C)[C@H]1[C@H](O)C[C@H]2C(C)C)[C@@]1(C)C[C@@H](O)[C@H](O)C(C)(C)[C@@H]1C[C@@H]4O` [Compound 43, Rubianol-d]?
A: efficacy of NO production inhibition compared with L-NMMA [3]: equivalent to L-NMMA; inhibition of NO production [3]: exhibited the inhibition

Q: For `COc1ccc(C[C@H]2C(=O)N[C@@H](C)C(=O)N(C)[C@H]3Cc4ccc(cc4)Oc4cc(ccc4OC)C[C@@H](C(=O)N[C@H](C)C(=O)N[C@@H](C)C(=O)N2C)N(C)C3=O)cc1` [Compound 104, RA-700], which “activities against P388” value (P388) is on record?
A: medium activities

Q: Which results are given for Rubianol-e [Compound 44]?
A: efficacy of NO production inhibition compared with L-NMMA [3]: equivalent to L-NMMA; inhibition of NO production [3]: exhibited the inhibition

Q: Which results are given for `CC(=O)OC[C@@]12CC[C@@]3(C)[C@H]4C(=CC[C@]3(C)[C@H]1[C@H](O)C[C@H]2C(C)C)[C@@]1(C)CCC(=O)C(C)(C)[C@@H]1C[C@@H]4O` [Compound 27, Rubiarbonone C]?
A: melting point: 98 to 100 °C; inhibition of NO production [3]: inhibit NO production; also recorded: inhibitory activities on NO production

Q: Which “inhibition of NO production” value [3] does the source give for `CC(=O)OC[C@@]12CC[C@@]3(C)[C@H]4C(=CC[C@]3(C)[C@H]1[C@H](O)C[C@H]2C(C)C)[C@@]1(C)CC[C@H](O)C(C)(C)[C@@H]1C[C@@H]4O` [Compound 42, Rubianol-c] here?
A: inhibit NO production; also recorded: inhibitory activities on NO production

Q: With `CC(C)[C@@H]1CC=C2[C@@]1(C)CC[C@@]1(C)[C@H]3C(=CC[C@]21C)[C@@]1(C)CC[C@H](O)C(C)(C)[C@@H]1C[C@@H]3O` [Compound 55, Rubiyunnanol B] as the molecule, how does the melting point read?
A: 247 to 248 °C

Q: And the “inhibition on A549, Hela and SMMC-7721” value (A549, Hela and SMMC-7721)?
A: had inhibition

Q: With `CC(C)[C@@H]1C[C@@H](O)[C@H]2[C@@]1(CO)CC[C@@]1(C)[C@H]3C(=CC[C@]21C)[C@@]1(C)CC[C@H](O)C(C)(C)[C@@H]1C[C@@H]3O` [Compound 16, Rubiarbonol A] as the molecule, how does the melting point read?
A: 260 to 263 °C

Q: And the “inhibition of NO production” value [3]?
A: inhibit NO production; also recorded: inhibitory activities on NO production

Q: What about the “effect on platelet aggregation at the high doses” value (platelet aggregation) of the same molecule?
A: promoted platelet aggregation

Q: And the “effect on platelet aggregation at the lower concentrations” value (platelet aggregation)?
A: possessed antiplatelet aggregation activity

Q: And the “cytotoxicity against HT-29” value (HT-29)?
A: relatively strong cytotoxicity

Q: Which melting point does the source give for `COC(=O)CC[C@@H]1NC(=O)[C@@H](C)NC(=O)[C@@H]2Cc3ccc(O)c(c3)Oc3ccc(cc3)C[C@@H](C(=O)N2C)N(C)C(=O)[C@H](C)NC(=O)[C@H](Cc2ccc(OC)cc2)N(C)C1=O` here?
A: 253 to 254 °C

Q: With RA-X [Compound 77] as the molecule, how does the “antitumour effect on P388” value (P388) read?
A: strong antitumour effect

Q: With RA- XVIII [Compound 85] as the molecule, how does the “cytotoxicity against P-388” value (P-388; P-388) read?
A: 0.012 µg/mL

Q: For `COc1ccc(C[C@H]2C(=O)N[C@@H](C)C(=O)N(C)[C@H]3Cc4ccc(cc4)Oc4cc(ccc4O)C[C@@H](C(=O)N[C@H](C)C(=O)N[C@@H](CCC(N)=O)C(=O)N2C)N(C)C3=O)cc1` [Compound 91, RA- XXIV], which “cytotoxicity against P-388 IC50” value (P-388; P-388) is on record?
A: 480 µg/mL

Q: And the “activity against NO production in LPS” value [1]?
A: exhibited activity

Q: Which “inhibition against arachidonic acid-induced and collagen-induced platelet aggregation” value (platelet aggregation; at 150 μM, among compounds 16, 17 and 25) does the source give for `CC(C)[C@@H]1C[C@@H](O)[C@H]2[C@@]1(C)CC[C@@]1(C)[C@H]3C(=CC[C@]21C)[C@@]1(C)CC[C@H](O)C(C)(C)[C@@H]1C[C@@H]3O` [Compound 17, Rubiarbonol B] here?
A: most potent inhibition

Q: With `C[C@H]1[C@H](C)CC[C@]2(C(=O)O)CC[C@]3(C)C(=CC[C@@H]4[C@@]5(C)CC[C@H](O)C(C)(C)[C@@H]5CC[C@]43C)[C@H]12` [Compound 11, Ursolic acid] as the molecule, how does the TRAIL-induced apoptosis (TRAIL-induced apoptosis) read?
A: potentiated TRAIL-induced apoptosis

Q: What about the STAT3 activation (STAT3) of the same molecule?
A: novel blocker of STAT3 activation

Q: And the apoptotic effects (four cell lines)?
A: markedly apoptotic effects

Q: And the cell adhesion (four cell lines)?
A: suppress cell adhesion

Q: What about the “production of VEGF and ICAM-1” value (four cell lines) of the same molecule?
A: reduce the production of VEGF and ICAM-1

Q: And the “renal aldose reductase activity” value (renal aldose reductase)?
A: markedly suppressed

Q: And the “activity of glyoxalase I” value (glyoxalase I)?
A: enhanced the activity

Q: And the “inhibition on HIV-1 protease” value [4]?
A: possess inhibition

Q: And the toxicity [5]?
A: low toxicity

Q: What about the antimicrobial activities [5] of the same molecule?
A: fairly high antimicrobial activities

Q: For RA-IX [Compound 76], which “antitumour effect on P388” value (P388) is on record?
A: almost no antitumour activities

Q: For O-seco-RA-XXIV [Compound 109], which “cytotoxic effects on HL-60 cells” value (HL-60 cells) is on record?
A: exhibited cytotoxic effects

Q: With `CC1(C)CC[C@]2(C(=O)O)CC[C@]3(C)C(=CC[C@@H]4[C@@]5(C)CC[C@H](O)C(C)(C)[C@@H]5CC[C@]43C)[C@@H]2C1` [Compound 12, Oleanolic acid] as the molecule, how does the “inhibitory activity against DNA topoisomerase II compared with DNA topoisomerase I” value (DNA topoisomerase II) read?
A: selective inhibitory activity

Q: And the “cytotoxicity against HT-29, MCF-7 and HepG2” value (HT-29, MCF-7 and HepG2)?
A: weak cytotoxicity

Q: And the apoptotic effects (four cell lines)?
A: markedly apoptotic effects

Q: What about the cell adhesion (four cell lines) of the same molecule?
A: suppress cell adhesion

Q: What about the “production of VEGF and ICAM-1” value (four cell lines) of the same molecule?
A: reduce the production of VEGF and ICAM-1

Q: And the glucose tolerance [6]?
A: improve glucose tolerance

Q: What about the visceral adiposity [6] of the same molecule?
A: ameliorate visceral adiposity

Q: What about the “renal aldose reductase activity” value (renal aldose reductase) of the same molecule?
A: markedly suppressed

Q: What about the “activity of glyoxalase I” value (glyoxalase I) of the same molecule?
A: enhanced the activity

Q: What about the toxicity [5] of the same molecule?
A: low toxicity

Q: And the antimicrobial activities [5]?
A: fairly high antimicrobial activities

Q: For RY-I [Compound 100], which “activity against NO production in LPS” value [1] is on record?
A: exhibited activity
